Key:
[1] = pK1 was determined; format: ADME; details: read-out: pK1
[2] = pK2 was determined; format: ADME; details: read-out: pK2

Molecule `[O-]/[N+](O)=N\O` has a pKa [1] of 3 and a pKa [2] of 9.35.

— ChEMBL document CHEMBL1139459, “Effects of pH on the cytotoxicity of sodium trioxodinitrate (Angeli's salt)” (J Med Chem, 2004)
